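Each compound was tested at five concentrations against cells in 96-well plates for 48 hours. GI50 is the concentration that inhibits growth by half.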 Active and inactive are the calls of the source. Cut-off read from the data, not from the text of the source: active = GI50 up to about 1.1 µM and inactive = higher. *1 amine or outer side, *2 acyl side, *3 side chain or, on linkers, in order; H or OH if unused. Where a SMILES comes first, the peptide text is derived from it. [ ]: non-standard residue; d: D form. The star is where a group is joined. ξ: configuration not given here. X43 = CCC(=O)CC(O)CC(C)CC(N[*:1])C(=O)[*:2]; ξLeu(3ξ-OH) = CC(C)C(O)C(N)C(=O)O; ξPro(4ξ-Me) = CC1CNC(C(=O)O)C1; X42 = CCC(C)/C=C/C(=O)*; Aib = CC(C)(N)C(=O)O; X44 = CC(CN(C)C)N*; βAla = NCCC(=O)O
Assays:
Assay in all cases: growth of human tumour cells (NCI), 48 h
[1] = system: CCRF-CEM
[2] = system: SK-MEL-5
[3] = system: RPMI-8226
[4] = system: NCI-H226
[5] = system: PC-3
[6] = system: NCI-H23
[7] = system: ACHN
[8] = system: UO-31
[9] = system: K562
[10] = system: SNB-75
[11] = system: EKVX
[12] = system: HCC 2998
[13] = system: DU-145
[14] = system: SW-620
[15] = system: OVCAR-4
[16] = system: MCF7
[17] = system: TK-10
[18] = system: SK-MEL-28

Compound | GI50 [1] | GI50 [2] | GI50 [3] | GI50 [4] | GI50 [5] | GI50 [6] | GI50 [7] | GI50 [8] | GI50 [9] | GI50 [10] | GI50 [11] | GI50 [12] | GI50 [13] | GI50 [14] | GI50 [15] | GI50 [16] | GI50 [17] | GI50 [18]
CC(C)Cc1c(C#N)c(C#N)c(N)n1Cc1ccccc1 | > 100 µM (inactive) | > 100 µM (inactive) | > 100 µM (inactive) | > 100 µM (inactive) | > 100 µM (inactive) | > 100 µM (inactive) | 82.4 µM (inactive) | > 100 µM (inactive) | > 100 µM (inactive) | 40.8 µM (inactive) | > 100 µM (inactive) | > 100 µM (inactive) | > 100 µM (inactive) | > 100 µM (inactive) | > 100 µM (inactive) | > 100 µM (inactive) | > 100 µM (inactive) | –
Cc1nc2ccc(F)cc2c2c1CCN2c1ccccc1 | 21.5 µM (inactive) | 12.9 µM (inactive) | 15.8 µM (inactive) | 16.6 µM (inactive) | 19.1 µM (inactive) | 20 µM (inactive) | 21.1 µM (inactive) | 19 µM (inactive) | 11.8 µM (inactive) | 12.8 µM (inactive) | 22.4 µM (inactive) | 18.1 µM (inactive) | 31.4 µM (inactive) | 23.4 µM (inactive) | 23.7 µM (inactive) | 28.1 µM (inactive) | 22.9 µM (inactive) | 16.2 µM (inactive)
C[N+]1(C(CO)Cc2c[nH]c3ccccc23)Cc2ccccc2C1 (centres undefined) | > 100 µM (inactive) | 32.6 µM (inactive) | 76.6 µM (inactive) | > 100 µM (inactive) | > 100 µM (inactive) | > 100 µM (inactive) | > 100 µM (inactive) | > 100 µM (inactive) | 89.7 µM (inactive) | > 100 µM (inactive) | 62.4 µM (inactive) | > 100 µM (inactive) | > 100 µM (inactive) | > 100 µM (inactive) | > 100 µM (inactive) | > 100 µM (inactive) | > 100 µM (inactive) | 31.7 µM (inactive)
O=[N+]([O-])c1cc(C2ON=C(c3ccccc3)N2C23CC4CC(CC(C4)C2)C3)ccc1Cl (centres undefined) | > 100 µM (inactive) | > 100 µM (inactive) | > 100 µM (inactive) | 49.5 µM (inactive) | > 100 µM (inactive) | > 100 µM (inactive) | > 100 µM (inactive) | > 100 µM (inactive) | > 100 µM (inactive) | 15.5 µM (inactive) | > 100 µM (inactive) | > 100 µM (inactive) | > 100 µM (inactive) | – | > 100 µM (inactive) | 2.74 µM (inactive) | > 100 µM (inactive) | > 100 µM (inactive)
C[C@]12CCC3c4ccc(O)cc4CC[C@H]3C1CC(=O)N(CCN1CCCC1)C2=O (some centres undefined) | > 10 µM (inactive) | > 10 µM (inactive) | > 10 µM (inactive) | > 10 µM (inactive) | > 10 µM (inactive) | > 10 µM (inactive) | > 10 µM (inactive) | > 10 µM (inactive) | > 10 µM (inactive) | 7.96 µM (inactive) | > 10 µM (inactive) | > 10 µM (inactive) | > 10 µM (inactive) | > 10 µM (inactive) | > 10 µM (inactive) | > 10 µM (inactive) | > 10 µM (inactive) | > 10 µM (inactive)
CCC(=O)CC(O)CC(C)CC(NC(=O)C1CC(C)CN1C(=O)/C=C/C(C)CC)C(=O)NC(C(=O)NC(C)(C)C(=O)NC(CC(C)C)C(=O)NC(CC(C)C)C(=O)NC(C)(C)C(=O)NC(C)(C)C(=O)NCCC(=O)NC(C)CN(C)C)C(O)C(C)C (centres undefined) (X42-[ξPro(4ξ-Me)][X43][ξLeu(3ξ-OH)][Aib]LL[Aib][Aib][βAla]-X44; configuration not given here) | < 0.005 µM (active) | < 0.005 µM (active) | 0.0218 µM (active) | < 0.005 µM (active) | 0.00632 µM (active) | < 0.005 µM (active) | 0.611 µM (active) | 5.87 µM (inactive) | 0.0469 µM (active) | 0.0165 µM (active) | < 0.005 µM (active) | 0.153 µM (active) | 0.351 µM (active) | 0.143 µM (active) | 0.0361 µM (active) | < 0.005 µM (active) | 0.345 µM (active) | 0.362 µM (active)
CC1CC(C(=O)OC2OC(COC3OC(CO)C(OC4OC(C)C(O)C(O)C4O)C(O)C3O)C(O)C(O)C2O)C2CCC3(C)C(=CCC4(C)C3CCC3C(C)(CO)C(O)C(O)CC34C)C2C1C (centres undefined) | 21.9 µM (inactive) | 18.7 µM (inactive) | 21.4 µM (inactive) | 32.5 µM (inactive) | 29.5 µM (inactive) | 16.3 µM (inactive) | > 10 µM (inactive) | > 100 µM (inactive) | 34.3 µM (inactive) | 16.9 µM (inactive) | > 10 µM (inactive) | 21.8 µM (inactive) | 33.5 µM (inactive) | 30.1 µM (inactive) | 15.1 µM (inactive) | 23.7 µM (inactive) | > 100 µM (inactive) | 17 µM (inactive)
C[N+]12C=CC=C1C(N1CCCC1)c1sc(-c3ccc(Cl)cc3)cc12 (centres undefined) | 17.5 µM (inactive) | 17.9 µM (inactive) | 10.6 µM (inactive) | 17 µM (inactive) | 16.3 µM (inactive) | – | 46 µM (inactive) | 33 µM (inactive) | – | 11.3 µM (inactive) | 22.6 µM (inactive) | 15.7 µM (inactive) | 16.9 µM (inactive) | 15.9 µM (inactive) | 18.2 µM (inactive) | 14.7 µM (inactive) | 19.6 µM (inactive) | 17.2 µM (inactive)
Cc1nc(Nc2ccc(Cl)cc2Cl)sc1C(=O)Nc1ccccc1 | 34.1 µM (inactive) | 37.9 µM (inactive) | 29.2 µM (inactive) | < 0.01 µM (active) | 31 µM (inactive) | 46 µM (inactive) | 36.1 µM (inactive) | 29.6 µM (inactive) | 24 µM (inactive) | 39 µM (inactive) | 84.7 µM (inactive) | 72.1 µM (inactive) | > 100 µM (inactive) | > 100 µM (inactive) | 73.6 µM (inactive) | 36 µM (inactive) | 57.4 µM (inactive) | > 100 µM (inactive)
COC(=O)C1Cc2cc3c(cc2C1)CCC3 | > 100 µM (inactive) | > 100 µM (inactive) | > 100 µM (inactive) | > 100 µM (inactive) | > 100 µM (inactive) | > 100 µM (inactive) | > 100 µM (inactive) | > 100 µM (inactive) | > 100 µM (inactive) | > 100 µM (inactive) | > 100 µM (inactive) | > 100 µM (inactive) | > 100 µM (inactive) | > 100 µM (inactive) | > 100 µM (inactive) | > 100 µM (inactive) | 3.65 µM (inactive) | > 100 µM (inactive)
O=C1/C(=C/c2ccccc2)CCc2ccc([N+](=O)[O-])cc21 | 4.13 µM (inactive) | 25.2 µM (inactive) | 0.492 µM (active) | > 100 µM (inactive) | 44.2 µM (inactive) | 34.7 µM (inactive) | 40.4 µM (inactive) | > 82.8 µM (inactive) | 15.9 µM (inactive) | 37.3 µM (inactive) | > 91.8 µM (inactive) | > 88.3 µM (inactive) | > 72.3 µM (inactive) | > 70 µM (inactive) | 39.5 µM (inactive) | 4.17 µM (inactive) | 60.1 µM (inactive) | > 81.8 µM (inactive)
CCC[C@H](O)[C@@H](CNc1cc(NC(C)=O)nc(NC(C)=O)n1)N(Cc1ccccc1)Cc1ccccc1 | > 10 µM (inactive) | 20.9 µM (inactive) | 46.2 µM (inactive) | 14.3 µM (inactive) | 13.5 µM (inactive) | 17.1 µM (inactive) | 19.8 µM (inactive) | 18.1 µM (inactive) | > 100 µM (inactive) | 13.2 µM (inactive) | 12.1 µM (inactive) | 76.4 µM (inactive) | 61.9 µM (inactive) | > 100 µM (inactive) | 15.7 µM (inactive) | 8.79 µM (inactive) | 20.3 µM (inactive) | 42.9 µM (inactive)
COc1cccc(C2c3cc4c(cc3OC(N3CCCCC3)C2C)OCO4)c1O (centres undefined) | 2.4 µM (inactive) | 3.62 µM (inactive) | 3.21 µM (inactive) | 6.55 µM (inactive) | 4.83 µM (inactive) | 7.31 µM (inactive) | 6.55 µM (inactive) | 12.4 µM (inactive) | 2.23 µM (inactive) | 5.41 µM (inactive) | 14.7 µM (inactive) | 10.5 µM (inactive) | 7.53 µM (inactive) | 3.97 µM (inactive) | 7.38 µM (inactive) | 5.6 µM (inactive) | 13.8 µM (inactive) | 6.27 µM (inactive)
CNC(=O)CCC(NC(=O)OC(C)(C)C)C(=O)NC(Cc1ccc(NC(=O)CCCCC(C)=O)cc1)C(=O)NCC(=O)NC (centres undefined) | – | > 100 µM (inactive) | > 100 µM (inactive) | > 100 µM (inactive) | > 100 µM (inactive) | > 100 µM (inactive) | > 100 µM (inactive) | > 100 µM (inactive) | > 100 µM (inactive) | > 100 µM (inactive) | > 100 µM (inactive) | > 100 µM (inactive) | > 100 µM (inactive) | > 100 µM (inactive) | > 100 µM (inactive) | > 100 µM (inactive) | > 100 µM (inactive) | > 100 µM (inactive)
CCOC(=O)NNC(=O)NCCNC(=O)NNC(=O)OCC | > 100 µM (inactive) | > 100 µM (inactive) | > 100 µM (inactive) | 98.6 µM (inactive) | > 100 µM (inactive) | > 100 µM (inactive) | – | > 100 µM (inactive) | > 100 µM (inactive) | > 100 µM (inactive) | > 100 µM (inactive) | > 100 µM (inactive) | > 100 µM (inactive) | > 100 µM (inactive) | > 100 µM (inactive) | > 100 µM (inactive) | > 100 µM (inactive) | > 100 µM (inactive)

Source: ChEMBL document CHEMBL1201862, “PubChem BioAssay data set” (2004)
